One assay concerns the target T1, plasma kallikrein (Homo sapiens, UniProt P03952).
T1 construct: from tissue
The experiment in a line: Neat human plasma assay, FXIIa contact pathway-activated, PFR-AMC substrate. Conditions: citrated human plasma 78% final, 10 nM human FXIIa, 100 μM PFR-AMC; read-out: Human Plasma Assay: IC90. Format: biochemical. In short, it runs like this: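 Compound inhibition of plasma kallikrein measured as PFR-AMC (100 μM) cleavage rate over 5 min at room temperature in 78% citrated human plasma activated with 10 nM FXIIa (Tris pH 7.5 buffer). IC50/IC90 from 4-parameter fit of rate versus inhibitor concentration.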

For assay [1], the target named is human activated kallikrein enzyme (Homo sapiens, UniProt P03952). The experiment in a line: Plasma kallikrein inhibition, fluorogenic PFR-AMC substrate, 500 pM activated kallikrein format. It is filed as biochemical. The settings on record: 500 pM activated kallikrein, 300 uM PFR-AMC, 30 min preincubation, 10 min reaction; read-out: Primary Dose Response Assay: Average EC50. The method in brief:
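High-enzyme format of the fluorogenic peptide assay, with EC50 taken from AMC signal: 500 pM activated kallikrein, 300 uM Pro-Phe-Arg-AMC, 30 min compound preincubation and 10 min reaction, all at room temperature, pH 7.5.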

By IC90 is commonly meant the point of the concentration-response curve where the effect stands at 90%. As usually defined, the EC50 is the concentration needed to bring the measured effect to its halfway point.

T1 sequence (P03952 391-638 limits assumed): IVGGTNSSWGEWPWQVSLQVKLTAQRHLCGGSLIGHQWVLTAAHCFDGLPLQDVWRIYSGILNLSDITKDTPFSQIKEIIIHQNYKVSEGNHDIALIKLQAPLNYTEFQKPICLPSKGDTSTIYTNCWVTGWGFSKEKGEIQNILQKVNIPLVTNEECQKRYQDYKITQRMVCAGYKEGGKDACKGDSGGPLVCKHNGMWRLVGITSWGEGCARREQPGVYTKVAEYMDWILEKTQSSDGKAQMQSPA
T1 sequence (P03952 20-390 partner limits assumed): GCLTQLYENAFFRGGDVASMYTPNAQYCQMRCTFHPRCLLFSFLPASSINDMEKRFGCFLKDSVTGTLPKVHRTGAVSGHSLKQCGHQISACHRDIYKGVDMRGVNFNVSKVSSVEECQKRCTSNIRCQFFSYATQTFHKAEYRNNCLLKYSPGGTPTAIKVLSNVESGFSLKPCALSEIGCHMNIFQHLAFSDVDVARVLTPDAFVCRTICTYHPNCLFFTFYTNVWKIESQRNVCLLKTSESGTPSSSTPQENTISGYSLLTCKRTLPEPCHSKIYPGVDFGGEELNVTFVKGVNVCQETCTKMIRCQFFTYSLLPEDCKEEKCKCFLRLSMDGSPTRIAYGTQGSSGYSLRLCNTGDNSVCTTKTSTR
Sequence of human activated kallikrein enzyme (P03952 391-638 limits assumed): as the sequence (P03952 391-638 limits assumed) above
Sequence of human activated kallikrein enzyme (P03952 20-390 partner limits assumed): as the sequence (P03952 20-390 partner limits assumed) above

Take `Cc1ccnc([C@H]2C[C@@H]2C(=O)Nc2cc(OCc3cn4cc(C5CC5)cc(N5CC(=O)N(CC(C)(C)O)C5=O)c4n3)nc(C)n2)n1` [Example 562, (1S,2S)—N-(6-((6-cyclopropyl-8-(3-(2-hydroxy-2-methylpropyl)-2,4-dioxoimidazolidin-1-yl)imidazo[1,2-a]pyridin-2-yl)methoxy)-2-methylpyrimidin-4-yl)-2-(4-methylpyrimidin-2-yl)cyclopropane-1-carboxamide]: the concentration for an effect of 90% (IC90) on plasma kallikrein lay within 400 to 1500 nM. Besides, the concentration giving a half-maximal response (EC50) in assay [1] was < 1 nM.

Take `Cc1ccnc([C@H]2C[C@@H]2C(=O)Nc2cc(OCc3cn4cc(C5CC5)cc(N5CC(=O)N(C)C5=O)c4n3)nc(OCCN(C)C)n2)n1` [Example 563, (1S,2S)—N-(6-((6-cyclopropyl-8-(3-methyl-2,4-dioxoimidazolidin-1-yl)imidazo[1,2-a]pyridin-2-yl)methoxy)-2-(2-(dimethylamino)ethoxy)pyrimidin-4-yl)-2-(4-methylpyrimidin-2-yl)cyclopropane-1-carboxamide]: the IC90 on plasma kallikrein was < 400 nM. In addition, the EC50 in assay [1] was < 1 nM.

For the compound `Cc1ccnc([C@H]2C[C@@H]2C(=O)Nc2cc(OCc3cn4cc(C5CC5)cc(N5CC(=O)N(CCN(C)C)C5=O)c4n3)nc(C)n2)n1` [Example 564, (1S,2S)-N-(6-((6-cyclopropyl-8-(3-(2-(dimethylamino)ethyl)-2,4-dioxoimidazolidin-1-yl)imidazo[1,2-a]pyridin-2-yl)methoxy)-2-methylpyrimidin-4-yl)-2-(4-methylpyrimidin-2-yl)cyclopropane-1-carboxamide], the concentration for an effect of 90% (IC90) at plasma kallikrein is < 400 nM. For the same compound, the EC50 in assay [1] was < 1 nM.

With `CN1CCN(c2cc(C3CC3)cn3cc(COc4ccnc(NC(=O)[C@H]5C[C@@H]5c5cccc(Cl)c5)c4)nc23)CC1` [Example 565, (1S,2S)-2-(3-chlorophenyl)-N-(4-((6-cyclopropyl-8-(4-methylpiperazin-1-yl)imidazo[1,2-a]pyridin-2-yl)methoxy)pyridin-2-yl)cyclopropane-1-carboxamide], at plasma kallikrein, the IC90 lay within 1500 to 10000 nM. The EC50 in assay [1] fell in the range of 1 to 10 nM.

As for `Cc1ccnc([C@H]2C[C@@H]2C(=O)Nc2cc(OCc3cn4cc(C5CC5)ccc4n3)cnn2)n1` [Example 568, (1S,2S)-N-(5-((6-cyclopropylimidazo[1,2-a]pyridin-2-yl)methoxy)pyridazin-3-yl)-2-(4-methylpyrimidin-2-yl)cyclopropane-1-carboxamide], on plasma kallikrein, the IC90 was in the range of 1500 to 10000 nM. In addition, the EC50 in assay [1] is < 1 nM.

As for `Cc1ccnc([C@H]2C[C@@H]2C(=O)Nc2nc(C)nc(OCc3cn4cc(C5CC5)cc(N5CC(=O)N(C)C5=O)c4n3)n2)n1` [Example 573, (1S,2S)—N-(4-((6-cyclopropyl-8-(3-methyl-2,4-dioxoimidazolidin-1-yl)imidazo[1,2-a]pyridin-2-yl)methoxy)-6-methyl-1,3,5-triazin-2-yl)-2-(4-methylpyrimidin-2-yl)cyclopropane-1-carboxamide], the concentration for an effect of 90% (IC90) at plasma kallikrein was 400 to 1500 nM. Moreover, the EC50 in assay [1] is < 1 nM.

On to `CNCc1cc(C2CC2)cn2cc(CNc3ccnc(NC(=O)[C@H]4C[C@@H]4c4cccc(Cl)c4)c3)nc12` [Example 595, (1S,2S)-2-(3-chlorophenyl)-N-(4-(((6-cyclopropyl-8-((methylamino)methyl)imidazo[1,2-a]pyridin-2-yl)methyl)amino)pyridin-2-yl)cyclopropane-1-carboxamide], for which the IC90 at plasma kallikrein is < 400 nM. Also, the EC50 in assay [1] is < 1 nM.

Turning to `CN(C)CCc1cc(C2CC2)cn2cc(CNc3ccnc(NC(=O)[C@H]4C[C@@H]4c4cccc(Cl)c4)c3)nc12` [Example 598, (1S,2S)-2-(3-chlorophenyl)-N-(4-(((6-cyclopropyl-8-(2-(dimethylamino)ethyl)imidazo[1,2-a]pyridin-2-yl)methyl)amino)pyridin-2-yl)cyclopropane-1-carboxamide], the IC90 on plasma kallikrein was < 400 nM. Further, the EC50 in assay [1] was < 1 nM.

Take `COCCN1CCN(c2cc(C3CC3)cn3cc(CNc4ccnc(NC(=O)[C@H]5C[C@@H]5c5cccc(Cl)c5)c4)nc23)CC1` [Example 599, (1S,2S)-2-(3-chlorophenyl)-N-(4-(((6-cyclopropyl-8-(4-(2-methoxyethyl)piperazin-1-yl)imidazo[1,2-a]pyridin-2-yl)methyl)amino)pyridin-2-yl)cyclopropane-1-carboxamide]: the concentration for an effect of 90% (IC90) at plasma kallikrein was < 400 nM. In assay [1], the 50% effective concentration (EC50) was < 1 nM.

Take `CCOC(=O)CN1CCN(c2cc(C3CC3)cn3cc(CNc4ccnc(NC(=O)[C@H]5C[C@@H]5c5cccc(Cl)c5)c4)nc23)CC1` [Example 600, ethyl 2-(4-(2-(((2-((1S,2S)-2-(3-chlorophenyl)cyclopropane-1-carboxamido)pyridin-4-yl)amino)methyl)-6-cyclopropylimidazo[1,2-a]pyridin-8-yl)piperazin-1-yl)acetate]: the 90% effect concentration (IC90) on plasma kallikrein was > 48000 nM. Also, in assay [1], the EC50 was < 1 nM.

Take `O=C(Nc1cc(NCc2cn3cc(C4CC4)cc(N4CCN(CC5CC5)CC4)c3n2)ccn1)[C@H]1C[C@@H]1c1cccc(Cl)c1` [Example 601, (1S,2S)-2-(3-chlorophenyl)-N-(4-(((6-cyclopropyl-8-(4-(cyclopropylmethyl)piperazin-1-yl)imidazo[1,2-a]pyridin-2-yl)methyl)amino)pyridin-2-yl)cyclopropane-1-carboxamide]: the IC90 at plasma kallikrein lay in the range of 400 to 1500 nM. For the same compound, the EC50 in assay [1] was < 1 nM.

Consider `O=C(O)CN1CCN(c2cc(C3CC3)cn3cc(CNc4ccnc(NC(=O)[C@H]5C[C@@H]5c5cccc(Cl)c5)c4)nc23)CC1` [Example 602, 2-(4-(2-(((2-((1S,2S)-2-(3-chlorophenyl)cyclopropane-1-carboxamido)pyridin-4-yl)amino)methyl)-6-cyclopropylimidazo[1,2-a]pyridin-8-yl)piperazin-1-yl)acetic acid], for which the IC90 on plasma kallikrein was < 400 nM. In addition, the 50% effective concentration (EC50) in assay [1] is < 1 nM.

For the compound `O=C(Nc1cc(NCc2cn3cc(C4CC4)cc(N4CCN(CCO)CC4)c3n2)ccn1)[C@H]1C[C@@H]1c1cccc(Cl)c1` [Example 603, (1S,2S)-2-(3-chlorophenyl)-N-(4-(((6-cyclopropyl-8-(4-(2-hydroxyethyl)piperazin-1-yl)imidazo[1,2-a]pyridin-2-yl)methyl)amino)pyridin-2-yl)cyclopropane-1-carboxamide], the IC90 on plasma kallikrein is < 400 nM. Besides, the 50% effective concentration (EC50) in assay [1] was < 1 nM.

Turning to `O=C(Nc1cc(N(CCO)Cc2cn3cc(C4CC4)ccc3n2)ccn1)[C@H]1C[C@@H]1c1cccc(Cl)c1` [Example 604, (1S,2S)-2-(3-chlorophenyl)-N-(4-(((6-cyclopropylimidazo[1,2-a]pyridin-2-yl)methyl)(2-hydroxyethyl)amino)pyridin-2-yl)cyclopropane-1-carboxamide], the IC90 at plasma kallikrein is 10000 to 48000 nM. The 50% effective concentration (EC50) in assay [1] was 1 to 10 nM.

For the compound `Cc1cc(NCc2cn3cc(C4CC4)cc(N4CCN(C)CC4)c3n2)cc(NC(=O)[C@H]2C[C@@H]2c2cccc(Cl)c2)n1` [Example 605, (1S,2S)-2-(3-chlorophenyl)-N-(4-(((6-cyclopropyl-8-(4-methylpiperazin-1-yl)imidazo[1,2-a]pyridin-2-yl)methyl)amino)-6-methylpyridin-2-yl)cyclopropane-1-carboxamide], the IC90 at plasma kallikrein is 400 to 1500 nM. Besides, the EC50 in assay [1] is < 1 nM.

Take `CNCCc1cc(C2CC2)cn2cc(CNc3ccnc(NC(=O)[C@H]4C[C@@H]4c4cccc(Cl)c4)c3)nc12` [Example 607, (1S,2S)-2-(3-chlorophenyl)-N-(4-(((6-cyclopropyl-8-(2-(methylamino)ethyl)imidazo[1,2-a]pyridin-2-yl)methyl)amino)pyridin-2-yl)cyclopropane-1-carboxamide]: the IC90 on plasma kallikrein was < 400 nM. Further, in assay [1], the EC50 is < 1 nM.

Take `CN1CC(O)(c2cc(C3CC3)cn3cc(CNc4ccnc(NC(=O)[C@H]5C[C@@H]5c5cccc(Cl)c5)c4)nc23)C1` [Example 608, (1S,2S)-2-(3-chlorophenyl)-N-(4-(((6-cyclopropyl-8-(3-hydroxy-1-methylazetidin-3-yl)imidazo[1,2-a]pyridin-2-yl)methyl)amino)pyridin-2-yl)cyclopropane-1-carboxamide]: the IC90 on plasma kallikrein was < 400 nM. For the same compound, the half-maximal effective concentration (EC50) in assay [1] was < 1 nM.

As for `CN1CC(c2cc(C3CC3)cn3cc(CNc4ccnc(NC(=O)[C@H]5C[C@@H]5c5cccc(Cl)c5)c4)nc23)C1` [Example 609, (1S,2S)-2-(3-chlorophenyl)-N-(4-(((6-cyclopropyl-8-(1-methylazetidin-3-yl)imidazo[1,2-a]pyridin-2-yl)methyl)amino)pyridin-2-yl)cyclopropane-1-carboxamide], the IC90 on plasma kallikrein is < 400 nM. Besides, in assay [1], the EC50 was < 1 nM.

Regarding `O=C(Nc1nsc(NCc2cn3cc(C4CC4)ccc3n2)n1)[C@H]1C[C@@H]1c1cccc(Cl)c1` [Example 610, (1S,2S)-2-(3-chlorophenyl)-N-(5-(((6-cyclopropylimidazo[1,2-a]pyridin-2-yl)methyl)amino)-1,2,4-thiadiazol-3-yl)cyclopropane-1-carboxamide], the IC90 at plasma kallikrein was in the range of 10000 to 48000 nM. Further, in assay [1], the half-maximal effective concentration (EC50) was in the range of 1 to 10 nM.

As to `O=C(Nc1cc(NCc2cn3cc(C4CC4)ccc3n2)cc(O)n1)[C@H]1C[C@@H]1c1cccc(Cl)c1` [Example 611, (1S,2S)-2-(3-chlorophenyl)-N-(4-(((6-cyclopropylimidazo[1,2-a]pyridin-2-yl)methyl)amino)-6-hydroxypyridin-2-yl)cyclopropane-1-carboxamide], the IC90 on plasma kallikrein fell in the range of 1500 to 10000 nM. In assay [1], the EC50 was < 1 nM.

For the origin of these results see patent US20240228488A1 (TAKEDA PHARMACEUTICAL COMPANY LIMITED, priority 2021, published 2024).
